According to ChEMBL document CHEMBL1133363, “Discovery and evaluation of potent, tyrosine-based alpha4beta1 integrin antagonists” (Bioorg Med Chem Lett, 2000):
Square brackets hold non-standard residues; d marks the D form. Peptide text beside a SMILES is read from it. Thz = O=C(O)[C@@H]1CSCN1

Tests used:
Integrin alpha-4/beta-1 [1] = biological target: T1, Integrin alpha-4/beta-1 (Homo sapiens, UniProt P05556+P13612); test: Inhibition of alpha4-beta1 VCAM binding in Jurkat cell adhesion assay; format: cell-based
T1 sequence (P05556 whole entry, one chain of several): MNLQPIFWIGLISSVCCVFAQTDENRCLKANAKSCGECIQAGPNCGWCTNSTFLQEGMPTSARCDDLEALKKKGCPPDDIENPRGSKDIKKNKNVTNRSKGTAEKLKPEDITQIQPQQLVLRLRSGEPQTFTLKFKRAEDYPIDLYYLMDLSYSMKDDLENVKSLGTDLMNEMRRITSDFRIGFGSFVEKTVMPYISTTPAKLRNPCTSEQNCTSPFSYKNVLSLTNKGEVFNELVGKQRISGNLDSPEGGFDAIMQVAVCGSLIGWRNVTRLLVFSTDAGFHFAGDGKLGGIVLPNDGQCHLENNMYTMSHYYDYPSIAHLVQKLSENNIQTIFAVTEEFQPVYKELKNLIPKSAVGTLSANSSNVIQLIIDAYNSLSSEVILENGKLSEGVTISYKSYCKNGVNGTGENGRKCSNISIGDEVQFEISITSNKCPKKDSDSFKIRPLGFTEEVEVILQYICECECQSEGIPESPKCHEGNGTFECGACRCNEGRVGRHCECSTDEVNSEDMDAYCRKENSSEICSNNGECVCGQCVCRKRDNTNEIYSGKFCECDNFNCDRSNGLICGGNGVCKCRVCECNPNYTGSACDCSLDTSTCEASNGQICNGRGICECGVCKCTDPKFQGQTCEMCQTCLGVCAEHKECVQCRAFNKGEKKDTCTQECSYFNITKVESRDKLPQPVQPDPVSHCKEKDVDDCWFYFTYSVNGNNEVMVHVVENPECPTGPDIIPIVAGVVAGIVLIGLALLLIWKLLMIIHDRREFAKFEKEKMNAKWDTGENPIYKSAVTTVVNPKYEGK

Integrin alpha-4/beta-1 [2] = biological target: T1, Integrin alpha-4/beta-1; test: Affinity for alpha4-beta1 integrin from HL60 cell lysate; format: cell-based, HL-60
[3] = Half life stability of compound was evaluated in rat plasma; format: ADME, organism-based
Integrin alpha-5/beta-1 = Integrin alpha-5/beta-1 (Homo sapiens, UniProt P05556+P08648); test: Inhibition of alpha5-beta1 integrin mediated cell adhesion; format: protein-complex assay
Integrin alpha-4/beta-7 = biological target: T2, Integrin alpha-4/beta-7 (Homo sapiens, UniProt P13612+P26010); test: Inhibition of alpha4-beta7 integrin mediated cell adhesion; format: protein-complex assay
T2 sequence (P13612 whole entry): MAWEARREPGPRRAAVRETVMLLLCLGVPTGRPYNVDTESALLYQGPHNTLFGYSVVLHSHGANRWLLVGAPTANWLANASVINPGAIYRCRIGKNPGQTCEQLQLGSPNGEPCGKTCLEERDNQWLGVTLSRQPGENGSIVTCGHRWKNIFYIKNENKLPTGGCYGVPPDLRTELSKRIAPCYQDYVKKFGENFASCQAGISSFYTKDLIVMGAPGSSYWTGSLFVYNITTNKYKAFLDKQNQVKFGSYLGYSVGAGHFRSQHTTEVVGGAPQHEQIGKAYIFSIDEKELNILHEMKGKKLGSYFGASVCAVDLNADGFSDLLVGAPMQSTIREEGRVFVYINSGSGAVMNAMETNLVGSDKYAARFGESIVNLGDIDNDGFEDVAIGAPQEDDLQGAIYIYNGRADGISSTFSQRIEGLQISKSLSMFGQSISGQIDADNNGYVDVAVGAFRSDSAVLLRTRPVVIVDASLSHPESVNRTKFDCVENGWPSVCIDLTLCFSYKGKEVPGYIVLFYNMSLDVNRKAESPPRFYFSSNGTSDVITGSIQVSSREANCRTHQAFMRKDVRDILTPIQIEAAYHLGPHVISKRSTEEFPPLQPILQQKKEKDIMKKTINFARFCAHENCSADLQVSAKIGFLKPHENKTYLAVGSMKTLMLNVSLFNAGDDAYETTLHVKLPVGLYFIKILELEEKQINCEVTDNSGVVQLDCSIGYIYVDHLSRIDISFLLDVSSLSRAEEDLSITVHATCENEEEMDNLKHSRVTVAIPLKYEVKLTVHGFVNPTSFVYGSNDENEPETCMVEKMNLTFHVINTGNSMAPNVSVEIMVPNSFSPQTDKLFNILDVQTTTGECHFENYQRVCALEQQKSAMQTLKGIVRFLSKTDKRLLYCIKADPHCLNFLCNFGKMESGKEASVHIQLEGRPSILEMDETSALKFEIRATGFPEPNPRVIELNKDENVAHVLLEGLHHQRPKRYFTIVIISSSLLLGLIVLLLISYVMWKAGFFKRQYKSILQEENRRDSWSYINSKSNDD
T2 sequence (P26010 whole entry): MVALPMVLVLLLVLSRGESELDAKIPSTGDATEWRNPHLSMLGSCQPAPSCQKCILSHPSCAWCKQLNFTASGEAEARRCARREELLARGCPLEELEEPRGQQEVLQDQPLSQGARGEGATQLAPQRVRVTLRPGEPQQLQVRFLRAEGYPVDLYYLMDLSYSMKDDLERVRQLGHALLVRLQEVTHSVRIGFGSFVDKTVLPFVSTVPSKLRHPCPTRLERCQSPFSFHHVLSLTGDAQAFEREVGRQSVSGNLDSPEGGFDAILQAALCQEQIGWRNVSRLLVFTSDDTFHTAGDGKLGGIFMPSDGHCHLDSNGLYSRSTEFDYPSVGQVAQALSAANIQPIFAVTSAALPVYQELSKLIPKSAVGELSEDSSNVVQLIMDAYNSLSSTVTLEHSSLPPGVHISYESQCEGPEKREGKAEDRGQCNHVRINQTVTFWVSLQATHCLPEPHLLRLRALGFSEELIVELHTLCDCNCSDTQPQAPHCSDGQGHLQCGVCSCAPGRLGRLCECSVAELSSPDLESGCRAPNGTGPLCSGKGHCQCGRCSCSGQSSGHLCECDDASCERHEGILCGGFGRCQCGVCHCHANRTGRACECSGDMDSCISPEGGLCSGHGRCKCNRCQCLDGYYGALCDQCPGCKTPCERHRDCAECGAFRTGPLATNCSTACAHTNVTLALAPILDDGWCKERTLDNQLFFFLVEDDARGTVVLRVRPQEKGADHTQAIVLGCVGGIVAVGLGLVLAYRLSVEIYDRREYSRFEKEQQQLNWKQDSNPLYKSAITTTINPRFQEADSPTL

[4] = biological target: Integrin alpha-IIb/beta-3 (Homo sapiens, UniProt P05106+P08514); test: The antagonist activity was evaluated by alphaIlb-beta3 cell assay; format: functional
Integrin alpha-M/beta-2 = Integrin alpha-M/beta-2 (Homo sapiens, UniProt P05107+P11215); test: Inhibition of alphaM-beta2 mediated cell adhesion; format: protein-complex assay
[5] = biological target: Intercellular adhesion molecule (ICAM-1), Integrin alpha-L/beta-2 (Homo sapiens, UniProt P05107+P05362+P20701); test: Inhibition of alphaL-beta2 mediated cell adhesion; format: protein-complex assay
Intercellular adhesion molecule (ICAM-1), Integrin alpha-L/beta-2, sequence (P20701 whole entry): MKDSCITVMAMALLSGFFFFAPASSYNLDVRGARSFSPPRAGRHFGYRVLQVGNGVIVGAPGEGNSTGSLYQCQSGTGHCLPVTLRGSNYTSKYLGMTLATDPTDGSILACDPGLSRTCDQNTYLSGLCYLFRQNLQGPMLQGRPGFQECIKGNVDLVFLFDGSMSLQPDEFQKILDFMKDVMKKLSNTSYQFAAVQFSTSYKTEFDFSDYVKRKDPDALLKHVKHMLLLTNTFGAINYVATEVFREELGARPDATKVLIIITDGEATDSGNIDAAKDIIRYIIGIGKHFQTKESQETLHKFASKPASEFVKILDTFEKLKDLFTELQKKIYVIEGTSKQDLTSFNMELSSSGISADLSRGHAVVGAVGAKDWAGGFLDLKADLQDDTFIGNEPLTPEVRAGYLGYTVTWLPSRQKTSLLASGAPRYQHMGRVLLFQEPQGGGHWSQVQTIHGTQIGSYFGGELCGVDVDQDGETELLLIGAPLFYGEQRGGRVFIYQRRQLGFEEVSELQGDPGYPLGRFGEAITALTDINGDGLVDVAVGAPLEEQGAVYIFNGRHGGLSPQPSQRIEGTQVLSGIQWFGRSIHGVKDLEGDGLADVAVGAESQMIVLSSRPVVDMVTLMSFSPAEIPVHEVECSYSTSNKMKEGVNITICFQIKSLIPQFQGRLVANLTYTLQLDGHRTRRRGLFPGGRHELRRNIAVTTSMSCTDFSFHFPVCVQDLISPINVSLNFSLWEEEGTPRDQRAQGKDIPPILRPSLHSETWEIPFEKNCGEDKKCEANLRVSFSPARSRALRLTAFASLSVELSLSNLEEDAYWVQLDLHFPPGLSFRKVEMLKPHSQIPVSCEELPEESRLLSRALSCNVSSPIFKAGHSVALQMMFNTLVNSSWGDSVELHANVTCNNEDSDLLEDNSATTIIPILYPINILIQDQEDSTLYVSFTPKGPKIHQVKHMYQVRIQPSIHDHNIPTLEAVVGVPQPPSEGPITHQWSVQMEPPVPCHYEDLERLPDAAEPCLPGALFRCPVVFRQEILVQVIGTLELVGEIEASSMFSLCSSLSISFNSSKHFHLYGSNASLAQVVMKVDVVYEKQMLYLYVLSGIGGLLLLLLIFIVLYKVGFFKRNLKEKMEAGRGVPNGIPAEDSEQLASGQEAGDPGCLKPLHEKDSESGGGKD
Intercellular adhesion molecule (ICAM-1), Integrin alpha-L/beta-2, sequence (P05362 whole entry): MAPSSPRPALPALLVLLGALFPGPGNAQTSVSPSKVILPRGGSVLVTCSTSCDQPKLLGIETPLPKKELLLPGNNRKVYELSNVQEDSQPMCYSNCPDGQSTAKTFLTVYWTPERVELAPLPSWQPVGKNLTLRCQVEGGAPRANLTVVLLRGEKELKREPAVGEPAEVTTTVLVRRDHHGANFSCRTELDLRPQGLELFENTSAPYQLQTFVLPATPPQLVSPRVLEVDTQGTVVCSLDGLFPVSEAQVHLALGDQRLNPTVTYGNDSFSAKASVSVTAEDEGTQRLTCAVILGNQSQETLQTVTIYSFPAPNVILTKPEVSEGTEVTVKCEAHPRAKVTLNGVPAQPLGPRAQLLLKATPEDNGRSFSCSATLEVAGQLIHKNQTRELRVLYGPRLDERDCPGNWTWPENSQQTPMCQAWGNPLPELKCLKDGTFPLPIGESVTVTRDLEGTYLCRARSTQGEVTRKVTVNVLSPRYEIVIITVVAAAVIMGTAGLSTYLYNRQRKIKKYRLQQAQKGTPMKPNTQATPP
Intercellular adhesion molecule (ICAM-1), Integrin alpha-L/beta-2, sequence (P05107 whole entry): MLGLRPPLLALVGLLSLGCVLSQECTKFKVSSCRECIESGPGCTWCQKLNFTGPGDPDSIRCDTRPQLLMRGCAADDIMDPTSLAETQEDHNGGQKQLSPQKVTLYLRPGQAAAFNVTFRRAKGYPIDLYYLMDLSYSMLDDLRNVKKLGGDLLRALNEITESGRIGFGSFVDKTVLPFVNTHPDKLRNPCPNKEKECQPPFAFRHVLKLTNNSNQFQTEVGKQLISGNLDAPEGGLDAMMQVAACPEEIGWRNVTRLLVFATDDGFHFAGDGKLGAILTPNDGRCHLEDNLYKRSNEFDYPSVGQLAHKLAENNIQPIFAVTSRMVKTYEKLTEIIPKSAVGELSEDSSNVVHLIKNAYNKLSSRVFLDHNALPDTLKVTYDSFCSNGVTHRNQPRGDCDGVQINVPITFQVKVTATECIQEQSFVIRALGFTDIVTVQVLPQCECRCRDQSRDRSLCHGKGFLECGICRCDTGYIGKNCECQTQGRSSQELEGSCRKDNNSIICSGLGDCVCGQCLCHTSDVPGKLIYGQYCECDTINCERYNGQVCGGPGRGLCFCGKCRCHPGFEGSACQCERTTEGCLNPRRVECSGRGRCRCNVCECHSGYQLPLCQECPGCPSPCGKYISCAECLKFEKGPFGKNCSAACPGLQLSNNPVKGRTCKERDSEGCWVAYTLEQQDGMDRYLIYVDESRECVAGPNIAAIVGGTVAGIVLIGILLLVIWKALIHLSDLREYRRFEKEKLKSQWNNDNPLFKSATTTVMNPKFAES

Integrin alpha-V/beta-3 = Integrin alpha-V/beta-3 (Homo sapiens, UniProt P05106+P06756); test: Inhibition of alphaV-beta3 mediated cell adhesion; format: protein-complex assay
Integrin alpha-V/beta-3, sequence (P05106 27-788 limits assumed): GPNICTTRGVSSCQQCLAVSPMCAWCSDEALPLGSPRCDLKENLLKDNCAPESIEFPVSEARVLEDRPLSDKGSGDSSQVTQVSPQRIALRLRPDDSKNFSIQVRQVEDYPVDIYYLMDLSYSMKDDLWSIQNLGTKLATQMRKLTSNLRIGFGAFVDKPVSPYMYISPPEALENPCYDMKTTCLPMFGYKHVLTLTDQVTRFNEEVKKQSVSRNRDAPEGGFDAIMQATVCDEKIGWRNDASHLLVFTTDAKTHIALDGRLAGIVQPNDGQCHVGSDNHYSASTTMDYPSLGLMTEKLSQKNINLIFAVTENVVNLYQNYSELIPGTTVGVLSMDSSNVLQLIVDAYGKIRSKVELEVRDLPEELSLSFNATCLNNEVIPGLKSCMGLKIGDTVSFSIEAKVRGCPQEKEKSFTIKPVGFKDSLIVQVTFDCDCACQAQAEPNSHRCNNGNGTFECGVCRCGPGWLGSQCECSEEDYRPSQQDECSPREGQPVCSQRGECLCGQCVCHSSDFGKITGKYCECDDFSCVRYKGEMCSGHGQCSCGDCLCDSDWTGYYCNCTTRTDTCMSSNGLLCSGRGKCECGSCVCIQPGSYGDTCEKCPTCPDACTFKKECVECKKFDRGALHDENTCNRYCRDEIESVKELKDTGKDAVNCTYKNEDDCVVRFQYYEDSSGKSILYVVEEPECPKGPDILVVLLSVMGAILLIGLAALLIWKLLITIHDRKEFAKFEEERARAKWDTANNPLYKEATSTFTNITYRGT
Integrin alpha-V/beta-3, sequence (P06756 31-889 limits assumed): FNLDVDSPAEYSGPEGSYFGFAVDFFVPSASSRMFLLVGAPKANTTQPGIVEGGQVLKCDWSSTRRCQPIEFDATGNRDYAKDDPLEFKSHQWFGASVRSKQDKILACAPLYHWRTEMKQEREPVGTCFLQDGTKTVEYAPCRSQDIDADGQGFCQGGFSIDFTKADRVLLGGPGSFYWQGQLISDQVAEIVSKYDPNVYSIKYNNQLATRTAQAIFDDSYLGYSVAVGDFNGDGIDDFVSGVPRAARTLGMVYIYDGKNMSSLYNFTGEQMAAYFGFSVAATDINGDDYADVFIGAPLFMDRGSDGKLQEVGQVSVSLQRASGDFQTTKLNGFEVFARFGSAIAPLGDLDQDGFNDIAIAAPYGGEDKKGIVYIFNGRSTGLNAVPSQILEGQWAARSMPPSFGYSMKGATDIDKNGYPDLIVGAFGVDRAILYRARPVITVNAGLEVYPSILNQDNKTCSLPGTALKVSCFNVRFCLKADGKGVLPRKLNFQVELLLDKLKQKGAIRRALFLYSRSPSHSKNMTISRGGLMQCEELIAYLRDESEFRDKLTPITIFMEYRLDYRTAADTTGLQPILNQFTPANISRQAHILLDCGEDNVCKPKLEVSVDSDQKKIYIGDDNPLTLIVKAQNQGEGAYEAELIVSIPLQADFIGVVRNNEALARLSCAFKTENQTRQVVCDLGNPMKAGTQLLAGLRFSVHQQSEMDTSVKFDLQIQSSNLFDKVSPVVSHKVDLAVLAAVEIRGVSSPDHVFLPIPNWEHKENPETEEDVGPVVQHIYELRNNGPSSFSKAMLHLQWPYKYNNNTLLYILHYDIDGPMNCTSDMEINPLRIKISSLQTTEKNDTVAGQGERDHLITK
Integrin alpha-V/beta-3, sequence (P06756 891-1048 limits assumed): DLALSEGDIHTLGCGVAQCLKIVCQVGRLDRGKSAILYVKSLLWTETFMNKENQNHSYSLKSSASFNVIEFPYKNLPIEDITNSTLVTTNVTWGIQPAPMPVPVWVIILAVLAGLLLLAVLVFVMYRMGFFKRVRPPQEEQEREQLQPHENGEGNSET

Row | IC50 (Integrin alpha-4/beta-1 [1]) | IC50 (Integrin alpha-4/beta-1 [2]) | half-life [3] | Structure (SMILES) | also measured
1 | 150 nM | 17 nM |  | CC(=O)N1CSC[C@@H]1C(=O)N[C@@H](Cc1ccc(OCc2cc(Cl)cc(Cl)c2)cc1)C(=O)O | 
2 | 140 nM | 12 nM | 138 min | CC(=O)N1CSC[C@@H]1C(=O)N[C@@H](Cc1ccc(OC(=O)C23CC4CC(CC(C4)C2)C3)cc1)C(=O)O | 
3 | 24 nM | 6 nM | > 720 min | CC(=O)N1CSC[C@@H]1C(=O)N[C@@H](Cc1ccc(OC(=O)c2c(Cl)cccc2Cl)cc1)C(=O)O | 
4 | 1480 nM | 25 nM | > 720 min | CC(=O)N1CSC[C@@H]1C(=O)N[C@@H](Cc1ccc(OCc2ccccc2)cc1)C(=O)O | 
5 | 170 nM | 4 nM | 96 min | CC(=O)N1CSC[C@@H]1C(=O)N[C@@H](Cc1ccc(OC(=O)c2ccccc2)cc1)C(=O)O | 
6 | 19500 nM | 220 nM |  | CC(=O)N1CSC[C@H]1C(=O)N[C@@H](Cc1ccc(OCc2ccccc2)cc1)C(=O)O | 
7 | 8040 nM | 90 nM |  | CC(=O)N1CSC[C@H]1C(=O)N[C@@H](CSCCCNC(=O)C12CC3CC(CC(C3)C1)C2)C(=O)O | 
8 | 40 nM | 2 nM |  | COc1cccc(OC)c1COc1ccc(C[C@H](NC(=O)[C@H]2CSCN2C(C)=O)C(=O)O)cc1 | 
9 | 35200 nM | 360 nM |  | CC(=O)N1CSC[C@H]1C(=O)N[C@@H](Cc1ccccc1)C(=O)O (Ac-[Thz]-Phe-OH) | 
10 | 170 nM | 15 nM |  | CC(=O)N1CSC[C@@H]1C(=O)N[C@@H](Cc1ccc(OCc2ccccc2C(F)(F)F)cc1)C(=O)O | 
11 | 263000 nM | 2740 nM |  | CC(=O)N1CSC[C@H]1C(=O)N[C@@H](Cc1ccc(O)cc1)C(=O)O (Ac-[Thz]-Tyr-OH) | 
12 | 76600 nM | 310 nM |  | COc1ccc(C[C@H](NC(=O)[C@@H]2CSCN2C(C)=O)C(=O)O)cc1 (Ac-[Thz]-Tyr(Me)-OH) | 
13 | 60 nM | 3 nM |  | CC(=O)N1CSC[C@@H]1C(=O)N[C@@H](Cc1ccc(OCc2c(F)cccc2F)cc1)C(=O)O | 
14 | 34 nM | 5 nM | > 720 min | CC(=O)N1CSC[C@@H]1C(=O)N[C@@H](Cc1ccc(OCc2c(Cl)cccc2Cl)cc1)C(=O)O | IC50 (Integrin alpha-5/beta-1): > 800 µM; IC50 (Integrin alpha-4/beta-7): 190 nM; IC50 [4]: > 400 µM; IC50 (Integrin alpha-M/beta-2): > 400 µM; IC50 [5]: > 200 µM; IC50 (Integrin alpha-V/beta-3): > 800 µM
15 | 35 nM | 9 nM |  | CC(=O)N1CSC[C@@H]1C(=O)N[C@@H](Cc1ccc(OCc2c(Cl)cc(Cl)cc2Cl)cc1)C(=O)O | 
